# Patent US20230364118A1, “RIBITOL TREATMENT” (priority 2020, published 2023)
# Where two headings read alike, the source gives them in different places.
# Experiments:
# [1] = Functional observational battery (FOB)
# Description: In this GLP study, the potential effects of ribitol on the CNS were evaluated in CD-1 mice utilizing the FOB. Male mice were randomly assigned to 4 groups of 8 and were administered a single oral dose of 0 (vehicle, purified water), 0.5, 1.0, or 2.0 g/kg ribitol. The FOB tests were conducted pre dose, and at 0.5, 1, 2, 4, and 24 hours post dose.
# [2] = PK comparison QD, BID, TID oral dosing; assay type: in vivo; conditions: CD-1, mouse, plasma; for AUC(0-inf) / Cmax / half-life: po, 0.3 g/kg
# Description: Each regimen was studied in 3 male and 3 female CD-1 mice. PK of ribitol following the final dose was compared among these three regimens. The first and the second subsets of mice receiving QD and BID of ribitol were bled at 0.5, 1, 2, 4, and 6 hours post QD dosing and the second dose of the BID dosing, respectively; the third subset of mice receiving TID of ribitol were bled at 0.5, 1, 2, 4 and 12 hours post the third dose.
# [3] = Single intravenous dose PK; assay type: in vivo, CD-1 mouse; conditions: for CLs: CD-1 mice; for clearance: read-out: Systemic clearance (CLs)
# Description: The PK of ribitol was studied in male and female CD-1 mice following three IV doses at 10, 30, and 100 mg/kg (n=3/dose/sex). Blood samples were collected serially up to 24 hours post dose.
# [4] = Single intravenous dose PK; assay type: in vivo, Bama minipig; conditions: for CLs: Bama minipigs
# Description: The PK of ribitol was studied in 2 male and 2 female Bama minipigs following escalating IV doses levels using the same animals with a 48 hour washout period at 10 mg/kg (Day 1), 30 mg/kg (Day 3) and 100 mg/kg (Day 5). On each dosing day, blood samples were collected serially up to 24 hours post dose.
# L276I FKRP mutant mice = experiment: Efficacy in L276I FKRP mutant mouse model; assay type: in vivo
# Description: The more common LGMD2i FKRP L276I mutation was studied in a murine model of disease. […] Total running time was increased in these dosing groups (FIG. 7C).
# The effect of ribitol on an additional model of LGMD2i was evaluated in mice with the L276I FKRP mutation. L276I mutant mice were treated with ribitol at single daily doses of 0.5 g/kg, 2 g/kg, 5 g/kg, and 5 g/kg BID by oral gavage from the age of 8 weeks when the mild dystrophic phenotype is detectable. The duration of treatment was one year. Ribitol was dissolved in saline and administered by oral gavage. The same methods described above were applied to evaluate expression of matriglycan and muscle pathology.
# [5] = 28-day oral GLP toxicity study with 14-day recovery; conditions: mouse
# Description: The purpose of this GLP study was to assess the potential toxicity, reversibility, persistence, or delayed effects of ribitol in mice following 28 days of BID oral gavage dosing. In addition, 20 mice/sex/group were treated for 28 days with either vehicle (purified water), 0.5, 1.0, or 1.5 g/kg/dose ribitol BID (1.0, 2.0, or 3.0 g/kg/day) followed by 14-day treatment free recovery period. In-life assessments included mortality, clinical signs including detailed clinical observations pre-test and once weekly during the dosing and recovery phase, body weight, food consumption, ophthalmology, and clinical pathology (hematology and serum chemistry). Terminal endpoints included macroscopic pathology, organ weights and histopathology. Blood was taken from a satellite group of mice for plasma TK (3/sex/timepoint) on Days 1 and 28.
# in vivo = experiment: in vivo; set-up: species or system mouse
# hERG potassium channels = hERG potassium channels (Homo sapiens, UniProt Q12809); experiment: cell-based
# hERG potassium channels, sequence (Q12809 whole entry): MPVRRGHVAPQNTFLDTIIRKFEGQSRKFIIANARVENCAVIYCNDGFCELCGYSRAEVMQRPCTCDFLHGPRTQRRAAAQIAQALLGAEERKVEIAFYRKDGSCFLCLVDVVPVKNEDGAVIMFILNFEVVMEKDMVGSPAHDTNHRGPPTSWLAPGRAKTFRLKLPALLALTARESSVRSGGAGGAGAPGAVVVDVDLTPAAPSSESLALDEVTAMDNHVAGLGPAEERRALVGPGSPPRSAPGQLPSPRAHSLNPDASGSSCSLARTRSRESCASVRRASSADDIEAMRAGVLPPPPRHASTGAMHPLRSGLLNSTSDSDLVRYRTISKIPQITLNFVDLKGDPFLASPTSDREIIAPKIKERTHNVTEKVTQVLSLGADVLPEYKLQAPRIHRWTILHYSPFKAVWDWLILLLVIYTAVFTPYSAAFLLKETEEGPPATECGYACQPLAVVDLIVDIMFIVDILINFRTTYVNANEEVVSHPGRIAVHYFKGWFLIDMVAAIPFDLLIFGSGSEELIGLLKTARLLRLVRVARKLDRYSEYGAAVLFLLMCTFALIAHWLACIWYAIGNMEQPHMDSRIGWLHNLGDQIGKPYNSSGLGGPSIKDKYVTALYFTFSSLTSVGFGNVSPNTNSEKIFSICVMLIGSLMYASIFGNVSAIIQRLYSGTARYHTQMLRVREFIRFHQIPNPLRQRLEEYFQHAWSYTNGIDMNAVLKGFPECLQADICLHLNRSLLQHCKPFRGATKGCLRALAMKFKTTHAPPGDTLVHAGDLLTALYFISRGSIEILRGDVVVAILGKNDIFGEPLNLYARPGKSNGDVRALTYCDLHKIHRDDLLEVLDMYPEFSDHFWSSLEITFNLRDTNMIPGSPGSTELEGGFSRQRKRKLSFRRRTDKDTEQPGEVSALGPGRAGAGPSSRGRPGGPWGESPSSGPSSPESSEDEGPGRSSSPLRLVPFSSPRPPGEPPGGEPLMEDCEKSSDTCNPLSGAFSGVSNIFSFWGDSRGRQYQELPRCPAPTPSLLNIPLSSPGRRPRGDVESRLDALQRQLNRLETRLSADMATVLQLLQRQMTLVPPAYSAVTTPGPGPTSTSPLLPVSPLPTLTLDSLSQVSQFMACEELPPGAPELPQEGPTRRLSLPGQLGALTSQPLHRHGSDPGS
# Description: Therefore, the concentrations chosen for the definitive hERG assay were 0.1, 0.3, 1, and 3 mM, the detected concentrations of postperfusion solution were 0.101, 0.293, 0.999, and 2.90 mM, respectively.
# [6] = female, PO 0.3 g/kg/dose BID, last dose
# [7] = female, PO 0.3 g/kg/dose TID, last dose
# [8] = male, PO 0.3 g/kg/dose BID, last dose
# [9] = male, PO 0.3 g/kg/dose TID, last dose
smiles,measurement,setting,value
"OC[C@@H](O)[C@@H](O)[C@@H](O)CO [ribitol, (2R,3s,4S)-Pentane-1,2,3,4,5-pentol]",treatment-related effects on FOB parameters,"[1]; 0.5, 1.0, 2.0 g/kg, 0.5-24 h post dose",no treatment-related effects
same,safety margin for proposed clinical starting dose,"[1]; male, CD-1, mouse, in vivo, 24 h",19 fold
same,"NOEL, CNS effects (FOB)","[1]; single oral dose, male, highest dose tested",2000 mg/kg
same,Tmax,"[2]; PO 0.3 g/kg QD, female",30 min
same,Tmax,"[2]; PO 0.3 g/kg QD, male",30 min
same,AUC(0-inf),"[2]; female, PO 0.3 g/kg QD",47.1 µg·h/mL
same,Cmax,"[2]; female, PO 0.3 g/kg QD",33300 ng/mL
same,half-life,"[2]; female, PO 0.3 g/kg QD",70.2 min
same,AUC(0-inf),[2]; [6],48.3 µg·h/mL
same,Cmax,[2]; [6],28300 ng/mL
same,half-life,[2]; [6],59 min
same,AUC(0-inf),[2]; [7],40.6 µg·h/mL
same,Cmax,[2]; [7],43900 ng/mL
same,half-life,[2]; [7],31.8 min
same,AUC(0-inf),"[2]; male, PO 0.3 g/kg QD",45.2 µg·h/mL
same,Cmax,"[2]; male, PO 0.3 g/kg QD",34200 ng/mL
same,half-life,"[2]; male, PO 0.3 g/kg QD",50.3 min
same,AUC(0-inf),[2]; [8],49.6 µg·h/mL
same,Cmax,[2]; [8],27400 ng/mL
same,half-life,[2]; [8],90 min
same,AUC(0-inf),[2]; [9],28.2 µg·h/mL
same,Cmax,[2]; [9],31400 ng/mL
same,half-life,[2]; [9],27.2 min
same,AUC(0-inf),"[3]; CD-1, mouse, plasma, IV 10 mg/kg, female",13.3 µg·h/mL
same,Vd,"[3]; CD-1, mouse, plasma, IV 10 mg/kg, female, read-out: Vss",4.27 L/kg
same,AUC(0-inf),"[3]; CD-1, mouse, plasma, IV 10 mg/kg, male",7.32 µg·h/mL
same,Vd,"[3]; CD-1, mouse, plasma, IV 10 mg/kg, male, read-out: Vss",1.49 L/kg
same,AUC(0-inf),"[3]; CD-1, mouse, plasma, IV 30 mg/kg, female",20.1 µg·h/mL
same,Vd,"[3]; CD-1, mouse, plasma, IV 30 mg/kg, female, read-out: Vss",3 L/kg
same,AUC(0-inf),"[3]; CD-1, mouse, plasma, IV 30 mg/kg, male",22.3 µg·h/mL
same,Vd,"[3]; CD-1, mouse, plasma, IV 30 mg/kg, male, read-out: Vss",6.74 L/kg
same,AUC(0-inf),"[3]; CD-1, mouse, plasma, IV 100 mg/kg, female",43.1 µg·h/mL
same,Vd,"[3]; CD-1, mouse, plasma, IV 100 mg/kg, female, read-out: Vss",2.67 L/kg
same,AUC(0-inf),"[3]; CD-1, mouse, plasma, IV 100 mg/kg, male",49.7 µg·h/mL
same,Vd,"[3]; CD-1, mouse, plasma, IV 100 mg/kg, male, read-out: Vss",2.01 L/kg
same,CLs,"[3]; IV 10 mg/kg, female",12.6 mL/min/kg
same,CLs,"[3]; IV 10 mg/kg, male",23.4 mL/min/kg
same,clearance,"[3]; both sexes, CD-1, plasma, mouse, IV 100 mg/kg, range",33.6 to 38.9 mL/min/kg
same,clearance,"[3]; both sexes, CD-1, plasma, mouse, IV 10 and 30 mg/kg, range",12.6 to 25 mL/min/kg
same,Vd,"[3]; both sexes, CD-1, plasma, mouse, IV, range, read-out: Volume of distribution at steady state (Vss)",1.49 to 6.74 L/kg
same,AUC(0-inf),"[4]; Bama, minipig, plasma, IV 10 mg/kg, female",17 µg·h/mL
same,half-life,"[4]; Bama, minipig, plasma, IV 10 mg/kg, female, read-out: T1/2 (converted)",33.4 min
same,Vd,"[4]; Bama, minipig, plasma, IV 10 mg/kg, female, read-out: Vss",0.417 L/kg
same,AUC(0-inf),"[4]; Bama, minipig, plasma, IV 10 mg/kg, male",11.2 µg·h/mL
same,half-life,"[4]; Bama, minipig, plasma, IV 10 mg/kg, male, read-out: T1/2 (converted)",32.7 min
same,Vd,"[4]; Bama, minipig, plasma, IV 10 mg/kg, male, read-out: Vss",0.603 L/kg
same,AUC(0-inf),"[4]; Bama, minipig, plasma, IV 30 mg/kg, female",57 µg·h/mL
same,half-life,"[4]; Bama, minipig, plasma, IV 30 mg/kg, female, read-out: T1/2 (converted)",44.9 min
same,Vd,"[4]; Bama, minipig, plasma, IV 30 mg/kg, female, read-out: Vss",0.582 L/kg
same,AUC(0-inf),"[4]; Bama, minipig, plasma, IV 30 mg/kg, male",35.8 µg·h/mL
same,half-life,"[4]; Bama, minipig, plasma, IV 30 mg/kg, male, read-out: T1/2 (converted)",31.1 min
same,Vd,"[4]; Bama, minipig, plasma, IV 30 mg/kg, male, read-out: Vss",0.5 L/kg
same,AUC(0-inf),"[4]; Bama, minipig, plasma, IV 100 mg/kg, female",210 µg·h/mL
same,half-life,"[4]; Bama, minipig, plasma, IV 100 mg/kg, female, read-out: T1/2 (converted)",59.6 min
same,Vd,"[4]; Bama, minipig, plasma, IV 100 mg/kg, female, read-out: Vss",0.434 L/kg
same,AUC(0-inf),"[4]; Bama, minipig, plasma, IV 100 mg/kg, male",150 µg·h/mL
same,half-life,"[4]; Bama, minipig, plasma, IV 100 mg/kg, male, read-out: T1/2 (converted)",46.4 min
same,Vd,"[4]; Bama, minipig, plasma, IV 100 mg/kg, male, read-out: Vss",0.449 L/kg
same,CLs,"[4]; IV 10 mg/kg, female",10.1 mL/min/kg
same,CLs,"[4]; IV 10 mg/kg, male",15.1 mL/min/kg
same,half-life,"[4]; both sexes, Bama, plasma, iv, minipig, range, read-out: T1/2 following the IV dose",31.1 to 59.6 min
same,clearance,"[4]; both sexes, Bama, plasma, minipig, IV 10-100 mg/kg, range, read-out: Systemic clearance (CLs)",7.95 to 15.1 mL/min/kg
same,Vd,"[4]; both sexes, Bama, plasma, minipig, IV, range, read-out: Volume of distribution at steady state (Vss)",0.417 to 0.603 L/kg
same,creatine kinase,L276I FKRP mutant mice; 1 year oral dosing,reduced with increasing doses
same,expression of matriglycan on αDG (immunohistochemistry),L276I FKRP mutant mice; 1 year oral dosing,increases in a dose dependent manner
same,increase in treadmill running distance,L276I FKRP mutant mice; 2 g/kg/day,14%
same,matriglycan expression (immunohistochemistry),L276I FKRP mutant mice; all treatment groups,increased matriglycan expression
same,treadmill running distance,"L276I FKRP mutant mice; six months, 2, 5 g/kg, 5 g/kg/dose BID, 3.3 g/kg/dose TID",trend toward improved running distance
same,total running time,"L276I FKRP mutant mice; six months, same dosing groups",increased
same,NOAEL,[5]; 28 days oral,1.5 g/kg/dose BID
same,time to resolution of soft or abnormal stools,[5]; in vivo,2 to 8 days
same,AUC(0-t),"in vivo; CD-1, mouse, po, 0.5 mg/kg/day, AUC(0-24), calculated exposure",182 µg·h/mL
same,AUC(0-t),"in vivo; CD-1, mouse, po, 2 g/kg/day, AUC(0-24), calculated exposure",727 µg·h/mL
same,AUC(0-t),"in vivo; female, CD-1, mouse, po, 3 g/kg/day, Steady-state AUC(0-24)",839 µg·h/mL
same,AUC(0-t),"in vivo; female, mouse, 3 g/kg/day, Steady-state AUC(0-24)",749 µg·h/mL
same,AUC(0-t),"in vivo; male, CD-1, mouse, po, 3 g/kg/day, Steady-state AUC(0-24)",1340 µg·h/mL
same,AUC(0-t),"in vivo; male, mouse, 3 g/kg/day, Steady-state AUC(0-24)",974 µg·h/mL
same,IC50,hERG potassium channels,> 2900 µM
